Laboratory results: the supplement of paper PMC13380429

What was measured:
Conditions in all cases: 72 h
[1] = tested on: U2OS; experiment: relative viability EC50 (midpoint between 100% and the lowest measured viability); higher = less toxic
[2] = tested on: Calu-3; experiment: as above
[3] = tested on: HepG2; experiment: as above
[4] = tested on: Vero E6; experiment: as above
[5] = tested on: Caco-2; experiment: as above
[6] = tested on: U2OS; experiment: cell viability relative to DMSO; higher = less toxic
[7] = tested on: Calu-3; experiment: as above
[8] = tested on: HepG2; experiment: as above
[9] = tested on: Vero E6; experiment: as above
[10] = tested on: Caco-2; experiment: as above
[11] = tested on: U2OS; experiment: drug sensitivity score (DSS) for viability; higher = more toxic; extreme values may be limits of the assay
[12] = tested on: Calu-3; experiment: as above
[13] = tested on: HepG2; experiment: as above
[14] = tested on: Vero E6; experiment: as above
[15] = tested on: Caco-2; experiment: as above

Row | SMILES | relative viability EC50 [1] | relative viability EC50 [2] | relative viability EC50 [3] | relative viability EC50 [4] | relative viability EC50 [5] | cell viability ([6]; 1 nM) | cell viability ([6]; 10 nM) | cell viability ([6]; 100 nM) | cell viability ([6]; 1000 nM) | cell viability ([6]; 10000 nM) | cell viability ([7]; 1 nM) | cell viability ([7]; 10 nM) | cell viability ([7]; 100 nM) | cell viability ([7]; 1000 nM) | cell viability ([7]; 10000 nM) | cell viability ([8]; 1 nM) | cell viability ([8]; 10 nM) | cell viability ([8]; 100 nM) | cell viability ([8]; 1000 nM) | cell viability ([8]; 10000 nM) | cell viability ([9]; 1 nM) | cell viability ([9]; 10 nM) | cell viability ([9]; 100 nM) | cell viability ([9]; 1000 nM) | cell viability ([9]; 10000 nM) | cell viability ([10]; 1 nM) | cell viability ([10]; 10 nM) | cell viability ([10]; 100 nM) | cell viability ([10]; 1000 nM) | cell viability ([10]; 10000 nM) | drug sensitivity score [11] | drug sensitivity score [12] | drug sensitivity score [13] | drug sensitivity score [14] | drug sensitivity score [15]
1 | CCC(=O)NC1CCc2cccc(OC)c2C1 (stereo not given) [8-M-PDOT] | > 10 µM | > 10 µM | > 10 µM | > 10 µM | > 10 µM | 104% | 97.9% | 103% | 101% | 109% | 109% | 112% | 102% | 97.6% | 112% | 100% | 94.6% | 101% | 99.1% | 102% | 99.6% | 106% | 98.5% | 103% | 106% | 100% | 99.5% | 99.3% | 98.7% | 119% | 0 | 0 | 0 | 0 | 0
2 | Nc1ncnc2c1ncn2[C@@H]1O[C@H](COP(=O)(O)OP(=O)(O)OP(=O)(O)O)[C@@H](O)[C@H]1O [ADENOSINE TRIPHOSPHATE DISODIUM] | > 10 µM | > 10 µM | > 10 µM | > 10 µM | > 10 µM | 93.8% | 97.9% | 93.3% | 101% | 110% | 97% | 96.6% | 104% | 95.3% | 110% | 101% | 100% | 106% | 93.2% | 98.4% | 91.9% | 90.5% | 90.6% | 90.2% | 106% | 95.3% | 103% | 99.5% | 97.1% | 105% | 0 | 0 | 0 | 0 | 0
3 | C=CC(=O)Nc1ccc2ncnc(Nc3ccc(OCc4cccc(F)c4)c(Cl)c3)c2c1 [AST-1306] | 0.665 µM | 0.0782 µM | 2.06 µM | 0.575 µM | 1.72 µM | 91.4% | 72.7% | 91.5% | 61.3% | 23.4% | 98.9% | 80.4% | 40.4% | 32.3% | 4.3% | 102% | 96.7% | 107% | 92.8% | 48.2% | 99.8% | 97% | 83.7% | 51.8% | 17.7% | 93.4% | 105% | 83.3% | 80.6% | 6.1% | 9.8 | 22.6 | 4 | 11.3 | 8.3
4 | COc1c(C)cnc(Cn2cnc3c(Cl)nc(N)nc32)c1C [BIIB021] | 0.495 µM | 0.538 µM | 0.12 µM | 0.633 µM | 0.746 µM | 99.4% | 99.4% | 93.3% | 27.7% | 4.4% | 102% | 109% | 105% | 49.4% | 39.4% | 94% | 100% | 60.8% | 1.5% | 0.6% | 101% | 104% | 103% | 51.8% | 36.7% | 91% | 101% | 92.8% | 65.8% | 39.5% | 14.5 | 9.3 | 23.1 | 9.1 | 7.5
5 | O=C(O)c1ccc(-c2ccc3cc(O)c(C45CC6CC(CC(C6)C4)C5)cc3c2)cc1 [CD-1530] | > 10 µM | > 10 µM | > 10 µM | > 10 µM | > 10 µM | 98.2% | 96% | 97.7% | 93% | 86.2% | 95.9% | 99.6% | 98.8% | 98.5% | 88% | 108% | 102% | 97.4% | 124% | 106% | 93.4% | 103% | 95.8% | 106% | 103% | 90.9% | 98.9% | 94.9% | 84.4% | 88% | 0.1 | 0.1 | 0 | 0 | 0.4
6 | N#Cc1cccc(C(=O)Nc2cc(-c3ccccc3)nn2-c2ccccc2)c1 [CDPPB] | > 10 µM | > 10 µM | > 10 µM | > 10 µM | > 10 µM | 92.8% | 97% | 97.1% | 93.9% | 91.6% | 101% | 95% | 101% | 97.2% | 100% | 106% | 103% | 97.8% | 107% | 104% | 98.5% | 96.2% | 98.6% | 99.2% | 103% | 93.3% | 100% | 108% | 95.4% | 102% | 0 | 0 | 0 | 0 | 0
7 | CCN(CC)CCOc1ccc(Cc2ccccc2)cc1 [DPPE] | > 10 µM | > 10 µM | > 10 µM | > 10 µM | > 10 µM | 98.8% | 104% | 100% | 104% | 96.5% | 96% | 89.7% | 100% | 101% | 96.6% | 112% | 98.4% | 107% | 91.2% | 94.4% | 108% | 103% | 107% | 103% | 96% | 100% | 101% | 96.7% | 105% | 84.6% | 0 | 0 | 0 | 0 | 0.1
8 | Cc1ccc(=O)n(-c2ccc(O)cc2)c1 [F351] | > 10 µM | > 10 µM | > 10 µM | > 10 µM | > 10 µM | 99.2% | 97.3% | 97.2% | 100% | 97.4% | 90.2% | 105% | 96.9% | 85.2% | 97.4% | 105% | 93.1% | 108% | 101% | 96.9% | 98.1% | 100% | 94.4% | 99.1% | 95.4% | 92.1% | 92.6% | 96.7% | 100% | 93% | 0 | 0 | 0 | 0 | 0
9 | C[C@@H]1O[C@@H]1P(=O)(O)O [FOSFOMYCIN CALCIUM] | > 10 µM | > 10 µM | > 10 µM | > 10 µM | > 10 µM | 103% | 97.9% | 103% | 98.8% | 102% | 100% | 104% | 97.7% | 97.5% | 94.9% | 97.6% | 101% | 94.8% | 111% | 97.3% | 105% | 101% | 98.7% | 99.2% | 100% | 97.3% | 94.5% | 94.4% | 94.1% | 101% | 0 | 0 | 0 | 0 | 0
10 | N#CN=C(NCCCCCCOc1ccc(Cl)cc1)Nc1ccncc1 [GMX1778] | 0.0363 µM | 0.0356 µM | 0.0058 µM | 0.326 µM | 0.0332 µM | 102% | 110% | 0.1% | -0.3% | -0.5% | 104% | 102% | 7.1% | 4.8% | 3.9% | 109% | 26% | 19.5% | 16.3% | 8.4% | 98.3% | 99% | 101% | 1.7% | 1.2% | 104% | 102% | 3.2% | 3.5% | 3.2% | 29.7 | 28.8 | 36.6 | 17.6 | 29.3
11 | CC=C1C(=O)C[C@H]2[C@@H]3CCC4=CC(=O)CC[C@]4(C)[C@H]3CC[C@]12C [GR-235] | > 10 µM | > 10 µM | > 10 µM | > 10 µM | > 10 µM | 100% | 98.4% | 102% | 98.2% | 99.1% | 110% | 89.9% | 100% | 99.8% | 114% | 85.2% | 93.1% | 95.4% | 101% | 91% | 110% | 108% | 97.8% | 104% | 111% | 95.6% | 96.2% | 99.5% | 90.3% | 83.4% | 0 | 0 | 0 | 0 | 1
12 | O=C(Nc1ccccc1)c1cc([N+](=O)[O-])ccc1Cl [GW-9662] | > 10 µM | > 10 µM | > 10 µM | > 10 µM | > 10 µM | 106% | 91.7% | 101% | 91.6% | 96.8% | 93.7% | 93.6% | 101% | 100% | 96.7% | 94.9% | 100% | 90% | 102% | 88.3% | 103% | 106% | 98.2% | 99.9% | 97.7% | 98% | 94.1% | 103% | 90.1% | 93.3% | 0 | 0 | 0 | 0 | 0
13 | Oc1ccc2ccccc2c1SSc1c(O)ccc2ccccc12 [IPA-3] | > 10 µM | > 10 µM | > 10 µM | > 10 µM | > 10 µM | 93.2% | 96.6% | 97.6% | 98.3% | 92.9% | 96.3% | 109% | 99.8% | 107% | 111% | 104% | 109% | 89.2% | 106% | 103% | 99.7% | 101% | 102% | 102% | 95.8% | 98.9% | 94.9% | 91% | 95.7% | 92.9% | 0 | 0 | 0 | 0 | 0
14 | CN([C@@H](Cc1ccc(OS(=O)(=O)c2cccc3cnccc23)cc1)C(=O)N1CCN(c2ccccc2)CC1)S(=O)(=O)c1cccc2cnccc12 [KN-62] | > 10 µM | > 10 µM | > 10 µM | > 10 µM | > 10 µM | 101% | 100% | 99.9% | 95.4% | 92.3% | 105% | 95.8% | 98% | 93.9% | 91.1% | 123% | 110% | 105% | 101% | 95.7% | 104% | 96.6% | 98.9% | 96.3% | 94.8% | 93.4% | 119% | 112% | 89.6% | 101% | 0 | 0 | 0 | 0 | 0
